Converted amounts (≈) assume the structure as drawn.
How the values were obtained:
[1] = Induction of apoptosis in human monocytes assessed as necrotic cells using Annexin V/propidium iodide by flow cytometry (reference value: 0.02 %); format: cell-based; conditions: monocyte
[2] = Induction of apoptosis in human platelets assessed as early apoptotic cells after 10 mins using Annexin V/propidium iodide by flow cytometry (reference value: 10.30 %); format: cell-based; conditions: platelet
[3] = Activation of human platelets assessed as CD62P expression at 3.9 ug/ml by flow cytometry relative to control; format: cell-based; conditions: platelet
[4] = Induction of apoptosis in human platelets assessed as viable cells after 10 mins using Annexin V/propidium iodide by flow cytometry (reference value: 89.61 %); format: cell-based, Platelet; conditions: read-out: Activity
[5] = Induction of apoptosis in human monocytes assessed as late apoptotic cells using Annexin V/propidium iodide by flow cytometry (reference value: 0.27 %); format: cell-based; conditions: monocyte
[6] = Induction of apoptosis in human platelets assessed as late apoptotic cells after 10 mins using Annexin V/propidium iodide by flow cytometry (reference value: 0.02 %); format: cell-based; conditions: platelet
[7] = Induction of apoptosis in human monocytes assessed as viable cells using Annexin V/propidium iodide by flow cytometry (reference value: 97.53 %); format: cell-based, Monocyte; conditions: read-out: Activity
[8] = Induction of apoptosis in human monocytes assessed as early apoptotic cells using Annexin V/propidium iodide by flow cytometry (reference value: 2.18 %); format: cell-based; conditions: monocyte
Trypanosoma cruzi [9] = test: Trypanocidal activity against epimastigote forms of Trypanosoma cruzi Queretaro after 24 hrs; format: functional
[10] = Induction of apoptosis in human platelets assessed as necrotic cells after 10 mins using Annexin V/propidium iodide by flow cytometry (reference value: 0.07 %); format: cell-based; conditions: platelet
Trypanosoma cruzi [11] = test: Trypanocidal activity against epimastigote forms of Trypanosoma cruzi Punta Lobos after 24 hrs; format: functional

| SMILES | Activity [1] [%] | Activity [2] [%] | Activity [3] [%] | viability at 10 min [4] [%] | Activity [5] [%] | Activity [6] [%] | viability [7] [%] | Activity [8] [%] | LC50 (Trypanosoma cruzi [9]) [µg/mL] | Activity [10] [%] | LC50 (Trypanosoma cruzi [11]) [µg/mL] |
| --- | --- | --- | --- | --- | --- | --- | --- | --- | --- | --- | --- |
| NC(=S)N/N=C/c1ccc(Sc2ccccc2C(F)(F)F)o1 | 0.24 | 17.31 | 22.14 | 82.6 | 2.63 | 0.06 | 70.7 | 26.47 | 14 (≈ 40.5 µM) | 0.05 | 11.4 (≈ 33 µM) |
| NC(=S)N/N=C/c1ccc(Sc2cccc(C(F)(F)F)c2)o1 | 2.57 | 8.87 | 19.06 | 90.9 | 7.87 | 0.05 | 66.7 | 22.9 | 7.8 (≈ 22.6 µM) | 0.17 | 17.8 (≈ 51.5 µM) |
| NC(=S)N/N=C/c1ccc(Sc2ccc(C(F)(F)F)cc2)o1 | 1.18 | 20.39 | 18.56 | 79.4 | 4.48 | 0.08 | 72.9 | 21.44 | 29.5 (≈ 85.4 µM) | 0.16 | 8.3 (≈ 24 µM) |
| NC(=S)N/N=C/c1ccc(Sc2ccc(C(F)(F)F)cc2[N+](=O)[O-])o1 | 0.7 | 12.48 | 23.63 | 87.2 | 2.81 | 0.24 | 79.4 | 17.05 | 3.4 (≈ 8.71 µM) | 0.09 | 3.2 (≈ 8.2 µM) |
| NC(=S)N/N=C/c1ccc(Sc2c(F)c(F)c(C(F)(F)F)c(F)c2F)o1 | 0.62 | 12.55 | 23.35 | 87.4 | 4.76 | 0.03 | 72.7 | 21.91 | 4.6 (≈ 11 µM) | 0.04 | 5.1 (≈ 12.2 µM) |
| O=C(Cn1ccnc1[N+](=O)[O-])NCc1ccccc1 [BENZNIDAZOLE] | 0.51 | 22.95 | 42.51 | 76.9 | 4.78 | 0.02 | 75.9 | 18.79 | 6.5 (≈ 25 µM) | 0.12 | 4 (≈ 15.4 µM) |
| CN(C)c1ccc(C(=C2C=CC(=[N+](C)C)C=C2)c2ccc(N(C)C)cc2)cc1.[Cl-] [GENTIAN VIOLET] |  |  |  |  |  |  |  |  | 6.2 |  | 15.8 |
